Test results published in the supplement of paper PMC10307832.

Experiments:
Experiment in all cases: relative viability (nuclei count vs DMSO), 5 days (fraction); higher = more cells survive
Elesclomol + Navitoclax = compound: CN(NC(=O)CC(=O)NN(C)C(=S)c1ccccc1)C(=S)c1ccccc1 [Elesclomol] + CC1(C)CCC(c2ccc(Cl)cc2)=C(CN2CCN(c3ccc(C(=O)NS(=O)(=O)c4ccc(N[C@H](CCN5CCOCC5)CSc5ccccc5)c(S(=O)(=O)C(F)(F)F)c4)cc3)CC2)C1 [Navitoclax] (partner 0.5 µM)
Procedure, shortened: (§1)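 Lung cancer cell lines were seeded in 1536-well plates and dosed by pin tool the next day, with either a single drug or a fixed anchor-drug dose combined with five library-drug doses (not always all listed) spaced in √10 steps. Five days later, one step fixed the cells and stained their nuclei (final 0.05% Triton X-100, 1% formaldehyde, 1 ug/ml Hoechst), and nuclei were counted on 4× images. Relative viability is the nuclei count in treated wells divided by the count in vehicle wells, and each value is the median of duplicate plates.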

Elesclomol + Foretinib = compound: CN(NC(=O)CC(=O)NN(C)C(=S)c1ccccc1)C(=S)c1ccccc1 [Elesclomol] + COc1cc2c(Oc3ccc(NC(=O)C4(C(=O)Nc5ccc(F)cc5)CC4)cc3F)ccnc2cc1OCCCN1CCOCC1 [Foretinib] (partner 0.25 µM)
Procedure, shortened: as §1

Elesclomol + OSI-027 = compound: CN(NC(=O)CC(=O)NN(C)C(=S)c1ccccc1)C(=S)c1ccccc1 [Elesclomol] + COc1cccc2cc(-c3nc([C@H]4CC[C@H](C(=O)O)CC4)n4ncnc(N)c34)[nH]c12 [OSI-027] (partner 0.5 µM)
Procedure, shortened: as §1

Elesclomol + Tozasertib = compound: CN(NC(=O)CC(=O)NN(C)C(=S)c1ccccc1)C(=S)c1ccccc1 [Elesclomol] + Cc1cc(Nc2cc(N3CCN(C)CC3)nc(Sc3ccc(NC(=O)C4CC4)cc3)n2)n[nH]1 [Tozasertib] (partner 0.1 µM)
Procedure, shortened: as §1

Elesclomol + Pemetrexed = compound: CN(NC(=O)CC(=O)NN(C)C(=S)c1ccccc1)C(=S)c1ccccc1 [Elesclomol] + Nc1nc2[nH]cc(CCc3ccc(C(=O)N[C@@H](CCC(=O)O)C(=O)O)cc3)c2c(=O)[nH]1 [Pemetrexed] (partner 0.2 µM)
Procedure, shortened: as §1

Cell Line	relative viability (Elesclomol + Navitoclax; first compound 0.003162 µM)	relative viability (Elesclomol + Navitoclax; first compound 0.01 µM)	relative viability (Elesclomol + Navitoclax; first compound 0.03162 µM)	relative viability (Elesclomol + Navitoclax; first compound 0.1 µM)	relative viability (Elesclomol + Foretinib; first compound 0.003162 µM)	relative viability (Elesclomol + Foretinib; first compound 0.01 µM)	relative viability (Elesclomol + Foretinib; first compound 0.03162 µM)	relative viability (Elesclomol + Foretinib; first compound 0.1 µM)	relative viability (Elesclomol + OSI-027; first compound 0.003162 µM)	relative viability (Elesclomol + OSI-027; first compound 0.01 µM)	relative viability (Elesclomol + OSI-027; first compound 0.03162 µM)	relative viability (Elesclomol + OSI-027; first compound 0.1 µM)	relative viability (Elesclomol + Tozasertib; first compound 0.003162 µM)	relative viability (Elesclomol + Tozasertib; first compound 0.01 µM)	relative viability (Elesclomol + Tozasertib; first compound 0.03162 µM)	relative viability (Elesclomol + Tozasertib; first compound 0.1 µM)	relative viability (Elesclomol + Pemetrexed; first compound 0.003162 µM)	relative viability (Elesclomol + Pemetrexed; first compound 0.01 µM)	relative viability (Elesclomol + Pemetrexed; first compound 0.03162 µM)	relative viability (Elesclomol + Pemetrexed; first compound 0.1 µM)
HCC-366	1.06	1.07	1.02	0.137	0.893	0.945	0.899	0.0283	1.05	0.139	0.823	0.0338	0.158	0.0679	0.0952	0.0212	0.167	0.156	0.116	0.0342
HCC-827	1.02	0.995	1	0.756	0.991	0.913	1.12	0.683	0.741	0.758	0.722	0.532	0.432	0.4	0.421	0.355	0.275	0.272	0.258	0.246
HOP-62	0.904	0.553	0.647	0.302	1.12	0.948	0.677	0.349	0.823	0.717	0.701	0.316	0.359	0.305	0.277	0.141	0.369	0.333	0.224	0.113
IA-LM	0.415	0.133	0.0436	0.0194	1.13	0.54	0.0372	0.009	–	–	–	–	–	–	–	–	–	–	–	–
LC-2-ad	0.521	0.213	0.062	0.099	0.697	0.411	0.267	0.286	0.52	0.231	0.273	0.276	0.394	0.274	0.277	0.231	0.294	0.269	0.236	0.201
LCLC-97TM1	0.368	0.298	0.253	0.115	0.986	0.952	0.909	0.418	0.549	0.164	0.49	0.15	0.196	0.148	0.178	0.153	0.159	0.133	0.164	0.0782
LCLC-103H	–	–	–	–	0.771	0.768	0.862	0.487	0.461	0.409	0.463	0.237	0.477	0.377	0.426	0.202	0.476	0.483	0.467	0.431
LK-2	0.671	0.247	0.142	0.115	0.89	0.969	0.719	0.177	0.232	0.224	0.179	0.116	0.172	0.166	0.153	0.12	–	0.289	0.276	0.128
LOU-NH91	0.672	0.465	0.307	0.282	0.902	0.868	0.862	0.807	0.786	0.701	0.595	0.714	0.631	0.575	0.581	0.568	0.401	0.404	0.487	0.375
LU99A	0.79	–	0.881	0.132	0.883	0.625	0.815	0.234	0.309	0.259	0.295	0.223	0.305	0.245	0.274	0.165	0.188	0.183	0.185	0.198
LXF-289	0.851	0.924	0.875	0.575	0.979	0.942	0.894	0.684	0.82	0.328	0.803	0.589	0.193	0.17	0.188	0.174	0.894	0.971	0.867	0.552
NCI-H358	–	–	–	–	0.261	0.182	0.106	0.1	0.276	0.116	0.0873	0.087	0.0718	0.0649	0.0613	0.0545	0.159	0.123	0.142	0.133
NCI-H522	–	–	–	–	–	–	–	–	0.716	0.62	0.634	0.457	0.563	0.608	0.567	0.465	1.08	1.09	1.18	0.641
NCI-H650	–	–	–	–	1.07	0.509	0.329	0.243	0.555	0.382	0.229	0.254	0.737	0.351	0.222	0.192	0.884	0.728	0.449	0.191
NCI-H661	–	–	–	–	0.885	0.54	0.275	0.293	0.617	0.283	0.242	0.168	0.356	0.3	0.245	0.213	0.884	0.596	0.38	0.331
NCI-H727	0.368	0.213	0.109	0.0643	0.745	0.611	0.526	0.317	0.641	0.426	0.394	0.251	0.661	0.357	0.424	0.249	–	–	–	–
NCI-H1792	0.608	0.566	0.504	0.628	–	–	–	–	0.724	0.547	0.67	0.61	–	–	–	–	0.79	–	0.793	0.277
SW 900	–	–	–	–	0.87	0.91	0.127	0.0681	0.615	0.287	0.121	0.0545	0.534	0.3	0.121	0.146	0.495	0.453	0.289	0.0977
